Experiment [1] is described as follows: ARNT/TACC3 interaction disruptors, potency, confirmation, biochemical, AlphaScreen, cherry-picked samples (AID 651703).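 Also: His-tagged ARNT PAS-B domain paired with GST-TACC3 E629A dimer coactivator fragment; potency of inhibitors that break up the complex and lower AlphaScreen signal.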 In kind it is functional, Homo sapiens.
In experiment [2] the target is 26S proteasome non-ATPase regulatory subunit 14 (Homo sapiens, UniProt O00487). Put plainly: inhibition of proteasome subunit RPN11 – biochemical, fluorescence polarization, uHTS hits, confirmation (AID 602368). In kind it is functional. A general note: Fluorescence polarisation rises when a labelled molecule tumbles more slowly, as on binding a larger partner.
For experiment [3], the target named is 72 kDa type IV collagenase (Homo sapiens, UniProt P08253). Put plainly: Dose Response validation of uHTS RPN11 inhibitor hits using a MMP-2 Fluorescence assay. It is filed as functional.
In experiment [4] the target is Prothrombin (Bos taurus, UniProt P00735). In words: thrombin inhibition, dose response, biochemical, fluorescence polarization, uHTS hits (AID 602369). In kind it is functional.
Experiment [5] can be described thus: MDA-MB-231 cell growth inhibition, dose response, cytotoxicity control for RAD54 inhibitor project, CellTiter-Glo luminescence, cherry-pick (AID 651692). It is filed as functional, cell-based. On the technique in general: In ATP-based viability assays light output follows the ATP content of the culture.
In experiment [6] the target is T1, DNA repair and recombination protein RAD54-like (Homo sapiens, UniProt Q92698).
T1 sequence (Q92698 whole entry): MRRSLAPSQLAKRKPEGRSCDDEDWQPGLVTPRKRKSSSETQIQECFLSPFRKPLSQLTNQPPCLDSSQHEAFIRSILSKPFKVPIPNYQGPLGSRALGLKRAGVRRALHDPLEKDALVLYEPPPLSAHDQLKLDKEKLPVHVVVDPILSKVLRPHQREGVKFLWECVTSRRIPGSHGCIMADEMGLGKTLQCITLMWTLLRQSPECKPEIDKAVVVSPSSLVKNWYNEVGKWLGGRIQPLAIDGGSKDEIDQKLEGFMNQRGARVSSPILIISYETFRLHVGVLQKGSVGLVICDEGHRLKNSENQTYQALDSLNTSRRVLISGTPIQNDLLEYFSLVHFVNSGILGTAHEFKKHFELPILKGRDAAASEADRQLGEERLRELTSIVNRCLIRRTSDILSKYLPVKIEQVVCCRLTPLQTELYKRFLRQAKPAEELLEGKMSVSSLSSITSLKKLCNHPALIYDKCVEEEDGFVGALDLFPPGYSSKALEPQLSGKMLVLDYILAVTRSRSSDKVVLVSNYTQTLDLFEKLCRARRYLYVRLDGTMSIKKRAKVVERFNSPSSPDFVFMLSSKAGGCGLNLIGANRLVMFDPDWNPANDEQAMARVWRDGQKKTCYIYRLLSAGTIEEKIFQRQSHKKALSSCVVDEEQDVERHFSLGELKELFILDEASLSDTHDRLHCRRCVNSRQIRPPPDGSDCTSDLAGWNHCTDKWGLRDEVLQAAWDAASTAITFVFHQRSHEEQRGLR
In words: inhibitors of human RAD54 branch migration, confirmation, biochemical, fluorescence, cherry-picked samples, dose series (AID 651657). In kind it is functional.

Experiment [7] addresses T2, DNA repair protein RAD52 homolog (Homo sapiens, UniProt P43351).
T2 sequence (P43351 whole entry): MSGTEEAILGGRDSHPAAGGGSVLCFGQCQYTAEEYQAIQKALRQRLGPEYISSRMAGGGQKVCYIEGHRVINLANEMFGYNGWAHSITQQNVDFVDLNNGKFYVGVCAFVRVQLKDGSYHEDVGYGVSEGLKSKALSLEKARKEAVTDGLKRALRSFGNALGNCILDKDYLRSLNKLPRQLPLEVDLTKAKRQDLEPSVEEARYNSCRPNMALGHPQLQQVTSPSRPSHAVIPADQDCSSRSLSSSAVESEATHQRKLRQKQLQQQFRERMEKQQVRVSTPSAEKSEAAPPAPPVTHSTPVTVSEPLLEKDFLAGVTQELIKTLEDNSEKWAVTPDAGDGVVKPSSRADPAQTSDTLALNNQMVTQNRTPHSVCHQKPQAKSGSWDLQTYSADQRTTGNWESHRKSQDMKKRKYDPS
In kind it is functional, biochemical.

Experiment [8] concerns the target T3, Interleukin-8 (Homo sapiens, UniProt P10145).
T3 sequence (P10145 whole entry): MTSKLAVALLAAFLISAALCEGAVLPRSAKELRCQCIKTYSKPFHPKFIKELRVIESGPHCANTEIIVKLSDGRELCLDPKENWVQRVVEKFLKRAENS
In words: Dose Response confirmation of uHTS small molecule hits for cystic fibrosis induced NFkb Inhibitors in a TNFa-induced IL8 counterscreen. In kind it is functional. To be noted: read-out: IC50_Mean. On the technique in general: The purpose of a counterscreen is to sort out artefacts and off-target activity.

In experiment [9] the target is T3, Interleukin-8. In words: Dose Response confirmation of uHTS small molecule hits for cystic fibrosis induced NFkb Inhibitors in a PAF-induced IL8 counterscreen. It is filed as functional. Conditions: read-out: IC50_Mean.
For experiment [10], the target named is Tyrosine-protein phosphatase non-receptor type 11 (Homo sapiens, UniProt Q06124). Put plainly: SHP2 phosphatase inhibition, dose response, selectivity assay for STEP inhibitor project, biochemical (AID 602367). It is filed as functional. Conditions: read-out: IC50_Mean.
For experiment [11], the target named is Tyrosine-protein phosphatase non-receptor type 5 (Homo sapiens, UniProt P54829). Put plainly: STEP phosphatase inhibitors, confirmation, biochemical, fluorescence intensity, uHTS hits (AID 602372). In kind it is functional. To be noted: read-out: IC50_Mean.
Experiment [12] deals with Dual specificity protein phosphatase 3 (Homo sapiens, UniProt P51452). In words: VHR phosphatase inhibition, dose response, selectivity assay for STEP inhibitor project, biochemical (AID 602374). In kind it is functional. To be noted: read-out: IC50_Mean.
Experiment [13] concerns the target T4, Low molecular weight phosphotyrosine protein phosphatase (Homo sapiens, UniProt P24666).
T4 sequence (P24666 whole entry): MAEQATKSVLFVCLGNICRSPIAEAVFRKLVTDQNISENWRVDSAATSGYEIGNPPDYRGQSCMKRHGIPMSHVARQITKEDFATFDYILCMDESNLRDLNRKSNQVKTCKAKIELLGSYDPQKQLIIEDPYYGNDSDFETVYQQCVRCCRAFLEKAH
It is filed as functional. Conditions: read-out: IC50_Mean.

The target in experiment [14] is T5, Tyrosine-protein phosphatase non-receptor type 22 (Homo sapiens, UniProt Q9Y2R2).
T5 sequence (Q9Y2R2 whole entry): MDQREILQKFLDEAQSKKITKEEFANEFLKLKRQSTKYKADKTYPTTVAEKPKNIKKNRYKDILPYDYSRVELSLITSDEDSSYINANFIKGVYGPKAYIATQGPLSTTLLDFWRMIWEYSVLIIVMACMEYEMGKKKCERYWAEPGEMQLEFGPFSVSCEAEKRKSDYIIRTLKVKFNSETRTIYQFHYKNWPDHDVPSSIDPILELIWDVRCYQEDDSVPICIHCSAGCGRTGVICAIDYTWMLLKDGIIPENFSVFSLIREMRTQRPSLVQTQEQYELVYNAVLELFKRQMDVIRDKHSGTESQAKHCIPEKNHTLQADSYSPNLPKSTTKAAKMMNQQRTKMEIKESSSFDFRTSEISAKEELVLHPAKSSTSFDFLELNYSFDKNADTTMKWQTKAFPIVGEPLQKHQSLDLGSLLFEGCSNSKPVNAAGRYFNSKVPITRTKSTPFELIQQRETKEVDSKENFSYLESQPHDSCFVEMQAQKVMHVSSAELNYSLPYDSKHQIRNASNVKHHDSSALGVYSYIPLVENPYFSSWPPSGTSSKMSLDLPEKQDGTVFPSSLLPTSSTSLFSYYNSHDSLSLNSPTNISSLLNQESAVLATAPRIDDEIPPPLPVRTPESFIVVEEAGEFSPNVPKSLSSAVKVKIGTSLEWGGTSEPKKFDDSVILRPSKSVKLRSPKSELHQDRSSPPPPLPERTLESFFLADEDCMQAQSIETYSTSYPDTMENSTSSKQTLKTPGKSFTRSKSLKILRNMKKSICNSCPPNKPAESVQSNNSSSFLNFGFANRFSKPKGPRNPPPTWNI
In words: PTPN22 phosphatase inhibition, dose response, selectivity assay for STEP inhibitor project, biochemical (AID 624241). In kind it is functional.

In experiment [15] the target is T4, Low molecular weight phosphotyrosine protein phosphatase. It is filed as functional. To be noted: read-out: IC50_Mean. This is another data set of the same source.
The target in experiment [16] is T5, Tyrosine-protein phosphatase non-receptor type 22. Put plainly: LYP phosphatase inhibition for selectivity, dose response, selectivity assay for LMPTP inhibitor project, biochemical, fluorescence, LYP catalytic domain (AID 652006). To be noted: read-out: IC50_Mean. It is filed as functional.
The target in experiment [17] is Platelet-activating factor acetylhydrolase (Mus musculus, UniProt Q60963). Put plainly: Late stage assay provider results from the probe development effort to identify inhibitors of pPAFAH: fluorescence-based dose-response biochemical gel-based competitive Activity-Based Protein Profiling (ABPP) assay for SAR compounds. It is filed as functional.
For experiment [18], the target named is Protein Wnt-3a (Mus musculus, UniProt P27467). Put plainly: SAR analysis of small molecule antagonists of Gli-SUFU in a Wnt3a luminescent reporter assay. In kind it is functional.
Experiment [19] is described as follows: T. cruzi intracellular amastigote growth inhibition, dose response, imaging, CA-I/72 strain, bovine embryo skeletal muscle, dry powder (AID 651885). In kind it is functional, cell-based.

For 7 molecules, AC50 and IC50 results are on record in ChEMBL document CHEMBL1201862, “PubChem BioAssay data set” (2004).

Calls of active or inactive are those of the source.

Tyrosine-protein phosphatase non-receptor type 11, sequence (Q06124 whole entry): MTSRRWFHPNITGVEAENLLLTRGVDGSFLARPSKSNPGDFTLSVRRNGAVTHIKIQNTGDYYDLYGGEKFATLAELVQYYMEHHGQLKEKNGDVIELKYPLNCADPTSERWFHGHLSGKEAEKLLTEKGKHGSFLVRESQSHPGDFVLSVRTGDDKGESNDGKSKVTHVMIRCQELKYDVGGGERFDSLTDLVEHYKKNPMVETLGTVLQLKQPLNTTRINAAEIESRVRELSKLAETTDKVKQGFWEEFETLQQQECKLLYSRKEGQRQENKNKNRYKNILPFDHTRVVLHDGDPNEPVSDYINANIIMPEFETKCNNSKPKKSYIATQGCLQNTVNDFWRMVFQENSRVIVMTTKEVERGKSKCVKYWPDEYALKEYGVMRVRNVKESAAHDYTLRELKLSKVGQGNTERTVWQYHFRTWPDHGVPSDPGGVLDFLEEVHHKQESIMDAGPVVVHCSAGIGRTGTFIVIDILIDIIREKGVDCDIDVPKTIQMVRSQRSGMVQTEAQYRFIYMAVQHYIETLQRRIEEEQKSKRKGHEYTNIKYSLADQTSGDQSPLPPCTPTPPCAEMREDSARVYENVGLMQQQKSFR
72 kDa type IV collagenase, sequence (P08253 whole entry): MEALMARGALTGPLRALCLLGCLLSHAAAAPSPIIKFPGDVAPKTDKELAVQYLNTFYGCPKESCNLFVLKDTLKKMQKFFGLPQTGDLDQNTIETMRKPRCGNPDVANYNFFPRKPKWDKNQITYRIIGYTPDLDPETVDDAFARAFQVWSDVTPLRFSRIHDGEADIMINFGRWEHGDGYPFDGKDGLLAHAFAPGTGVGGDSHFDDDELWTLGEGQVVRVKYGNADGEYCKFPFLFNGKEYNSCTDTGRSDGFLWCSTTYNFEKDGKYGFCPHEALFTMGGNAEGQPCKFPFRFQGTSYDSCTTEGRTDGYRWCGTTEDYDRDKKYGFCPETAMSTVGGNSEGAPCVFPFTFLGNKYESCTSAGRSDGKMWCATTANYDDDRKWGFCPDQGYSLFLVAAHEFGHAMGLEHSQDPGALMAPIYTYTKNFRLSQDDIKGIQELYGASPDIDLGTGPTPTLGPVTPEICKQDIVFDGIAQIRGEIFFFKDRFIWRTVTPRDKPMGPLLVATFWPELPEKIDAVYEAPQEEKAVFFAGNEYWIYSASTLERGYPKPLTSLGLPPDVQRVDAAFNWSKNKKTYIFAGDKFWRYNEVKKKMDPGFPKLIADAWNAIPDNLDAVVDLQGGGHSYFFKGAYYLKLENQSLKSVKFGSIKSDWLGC
26S proteasome non-ATPase regulatory subunit 14, sequence (O00487 whole entry): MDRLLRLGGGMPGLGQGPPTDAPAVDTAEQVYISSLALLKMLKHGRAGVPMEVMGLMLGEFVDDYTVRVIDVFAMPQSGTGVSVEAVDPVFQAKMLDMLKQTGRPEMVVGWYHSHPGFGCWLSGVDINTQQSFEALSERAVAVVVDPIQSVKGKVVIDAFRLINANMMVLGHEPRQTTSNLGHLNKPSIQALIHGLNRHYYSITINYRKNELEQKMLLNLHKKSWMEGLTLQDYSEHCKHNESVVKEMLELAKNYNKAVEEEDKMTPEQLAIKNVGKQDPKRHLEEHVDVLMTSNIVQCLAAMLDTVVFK
Protein Wnt-3a, sequence (P27467 whole entry): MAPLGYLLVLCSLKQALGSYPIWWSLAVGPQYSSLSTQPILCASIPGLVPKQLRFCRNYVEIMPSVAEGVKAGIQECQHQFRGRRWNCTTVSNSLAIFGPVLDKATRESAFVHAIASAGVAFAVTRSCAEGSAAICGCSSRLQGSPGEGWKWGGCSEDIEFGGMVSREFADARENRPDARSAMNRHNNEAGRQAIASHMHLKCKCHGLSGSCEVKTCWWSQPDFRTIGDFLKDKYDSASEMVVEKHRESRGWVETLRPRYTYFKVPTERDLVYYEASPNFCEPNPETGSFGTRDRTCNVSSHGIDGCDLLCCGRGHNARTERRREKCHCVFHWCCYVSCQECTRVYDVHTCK
Dual specificity protein phosphatase 3, sequence (P51452 whole entry): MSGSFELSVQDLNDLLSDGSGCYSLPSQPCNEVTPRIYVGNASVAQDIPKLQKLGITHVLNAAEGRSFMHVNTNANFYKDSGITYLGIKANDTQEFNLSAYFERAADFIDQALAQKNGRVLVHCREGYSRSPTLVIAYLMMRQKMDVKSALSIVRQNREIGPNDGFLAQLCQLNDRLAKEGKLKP
Tyrosine-protein phosphatase non-receptor type 5, sequence (P54829 whole entry): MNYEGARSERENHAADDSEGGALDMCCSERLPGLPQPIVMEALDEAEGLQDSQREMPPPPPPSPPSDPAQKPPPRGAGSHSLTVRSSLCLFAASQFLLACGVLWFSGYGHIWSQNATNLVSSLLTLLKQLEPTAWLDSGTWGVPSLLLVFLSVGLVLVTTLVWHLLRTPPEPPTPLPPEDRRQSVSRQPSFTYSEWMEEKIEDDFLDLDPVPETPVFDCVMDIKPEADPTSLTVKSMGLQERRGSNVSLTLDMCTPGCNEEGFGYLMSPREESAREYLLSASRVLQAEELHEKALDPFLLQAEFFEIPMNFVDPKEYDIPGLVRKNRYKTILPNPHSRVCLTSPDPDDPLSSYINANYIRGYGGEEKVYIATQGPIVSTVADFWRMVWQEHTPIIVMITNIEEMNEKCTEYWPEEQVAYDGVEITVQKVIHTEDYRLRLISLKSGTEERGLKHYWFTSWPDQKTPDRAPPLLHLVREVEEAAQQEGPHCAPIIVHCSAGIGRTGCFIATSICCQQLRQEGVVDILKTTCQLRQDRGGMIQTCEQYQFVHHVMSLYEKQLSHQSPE
Platelet-activating factor acetylhydrolase, sequence (Q60963 whole entry): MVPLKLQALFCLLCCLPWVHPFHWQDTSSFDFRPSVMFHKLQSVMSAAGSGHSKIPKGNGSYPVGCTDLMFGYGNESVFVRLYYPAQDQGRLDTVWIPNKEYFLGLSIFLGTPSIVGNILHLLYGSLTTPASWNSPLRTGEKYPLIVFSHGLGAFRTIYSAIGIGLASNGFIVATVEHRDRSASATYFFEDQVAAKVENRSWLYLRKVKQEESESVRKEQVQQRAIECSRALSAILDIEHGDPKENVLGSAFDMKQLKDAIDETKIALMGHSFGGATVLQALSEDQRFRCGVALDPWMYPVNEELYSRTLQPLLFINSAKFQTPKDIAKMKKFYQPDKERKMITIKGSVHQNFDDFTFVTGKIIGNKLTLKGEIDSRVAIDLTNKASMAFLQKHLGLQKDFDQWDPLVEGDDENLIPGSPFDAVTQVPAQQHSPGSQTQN

In the case of `O=C(COC(=O)c1ccc([N+](=O)[O-])o1)Nc1ccc(F)cc1`, the AC50 in [1] was 109 µM (active).

For `COC(=O)c1c(NC(=O)c2ccc(S(=O)(=O)N3CC(C)OC(C)C3)cc2)sc2c1CCN(C)C2` (centres undefined), the IC50 in [2] is 29.5 µM (active); in experiment [3] it was > 100 µM (inactive); in experiment [4], 37.4 µM (active). The results for the half-maximal activity concentration (AC50) in [5], in experiment [6] and in [7] were 24.6 µM (active), 55.4 µM (active) and 11.8 µM (active), respectively.

As for `Nc1nccc(SCc2ccc(Cl)cc2Cl)n1`, the results for the IC50 in experiment [8] and in experiment [9] were > 79 µM (inactive) and 6.67 µM (active), respectively.

On to `O=C(N/N=C/c1ccc(Br)s1)c1cccc([N+](=O)[O-])c1`, for which the IC50 is 2.15 µM (active) in [10]; 7.95 µM (active) in [11]; 3.4 µM (active) in [12]; 9.2 µM (active) in [13]; 64.9 µM (inactive) in [14]; 9.56 µM (active) in experiment [15]. For the same molecule, the IC50 in [16] was 18.2 µM (active).

Consider `Cc1cc(N2CCN(C(=O)Oc3ccc(-c4ccccc4)cc3)CC2)c2ccccc2n1`, for which the IC50 in [17] was 0.091 µM (active).

Regarding `CC1CCN(c2cc(NC(=O)c3ccccc3)ncn2)CC1`, the IC50 in experiment [18] was > 21.8 µM (inactive).

With `CC(C)N1C[C@H](C)[C@@H](CN(C)C(=O)OC(C)(C)C)Oc2c(NC(=O)c3ccccn3)cccc2C1=O`, the IC50 in experiment [19] is 10.3 µM (inconclusive).

By AC50 is commonly meant the concentration giving half of the maximal activity seen.
